Reference: US7691885B2, “Pyridones useful as inhibitors of kinases” (Vertex Pharmaceuticals Incorporated, priority 2005, dated 2010)

Biological target: T1, human Itk kinase (Homo sapiens, UniProt Q08881)
T1 sequence (Q08881 1-620): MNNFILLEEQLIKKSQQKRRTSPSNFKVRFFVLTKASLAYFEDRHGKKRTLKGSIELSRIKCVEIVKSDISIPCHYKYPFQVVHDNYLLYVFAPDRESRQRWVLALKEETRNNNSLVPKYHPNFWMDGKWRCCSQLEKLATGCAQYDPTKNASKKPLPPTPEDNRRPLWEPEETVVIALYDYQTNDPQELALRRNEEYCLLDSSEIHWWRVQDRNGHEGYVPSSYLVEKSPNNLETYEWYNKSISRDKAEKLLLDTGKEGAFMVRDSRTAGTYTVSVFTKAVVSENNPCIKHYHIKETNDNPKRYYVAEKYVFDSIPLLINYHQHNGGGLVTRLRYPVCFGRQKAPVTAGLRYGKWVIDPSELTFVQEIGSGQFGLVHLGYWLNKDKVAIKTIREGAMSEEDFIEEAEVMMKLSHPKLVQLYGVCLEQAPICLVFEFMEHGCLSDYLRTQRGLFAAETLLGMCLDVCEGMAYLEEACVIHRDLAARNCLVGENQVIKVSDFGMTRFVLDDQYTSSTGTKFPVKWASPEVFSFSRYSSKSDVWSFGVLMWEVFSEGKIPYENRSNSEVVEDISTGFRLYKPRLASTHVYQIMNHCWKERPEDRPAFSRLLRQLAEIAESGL
Test: Itk inhibition assay (radioactivity-based or spectrophotometric coupled enzyme assay)
Type: biochemical
Experimental: The compounds of the present invention can be evaluated as inhibitors of human Itk kinase using either a radioactivity-based or spectrophotometric assay. In general, compounds of the invention, including the compound in Table 1, are effective for the inhibition of ITK. Specifically, compound I.1 has a Ki value of <2 uM.
Assays are carried out in a mixture of 100 mM HEPES (pH 7.5), 10 mM MgCl2, 25 mM NaCl, 0.01% BSA and 1 mM DTT. Final substrate concentrations are 15 μM [γ-^33P]ATP (400 μCi ^33P ATP/μmol ATP, Amersham Pharmacia Biotech/Sigma Chemicals) and 2 μM peptide (SAM68 protein Δ332-443). Assays are carried out at 25° C. in the presence of 30 nM Itk. An assay stock buffer solution is prepared containing all of the reagents listed above, with the exception of ATP and the test compound of interest. […]
IC50 data are calculated from non-linear regression analysis of the initial rate data using the Prism software package (GraphPad Prism version 3.0cx for Macintosh, GraphPad Software, San Diego Calif., USA). […]
Ki(app) data are calculated from non-linear regression analysis of the initial rate data using the Prism software package (GraphPad Prism version 3.0cx for Macintosh, GraphPad Software, San Diego Calif., USA). […]

Q: How did the Ki turn out when O=c1[nH]cc(-c2ccccc2)cc1-c1cc2ccccc2[nH]1 [Compound I.1, 3-(1H-indol-2-yl)-5-phenylpyridin-2(1H)-one] was run?
A: The Ki was under 2000 nM.
